Results on five compounds are retold here after publication PMC13578988, “No ancillary proteins are essential for the functional heterologous expression of the homomeric α6 nicotinic acetylcholine receptor from the brown castor tick Ixodes ricinus” (Current Research in Parasitology & Vector-borne Diseases, 2026).

In one experiment the test system is Asu-ACR-16. The following applies: cited from earlier work.
Experiment [1] relates to T1, Iricα6B (homomeric α6 nicotinic acetylcholine receptor, splice variant B).
T1 construct: full-length Iricα6B, 517 amino acids (exon 3b only), homopentamer
Put plainly: two-electrode voltage clamp in Xenopus laevis oocytes expressing Iricα6B (agonist dose-response). Type of experiment: cell-based, Ixodes ricinus.

pEC50: −log10 of the molar value.

The pEC50 is −log10 of the EC50, conventionally taken in molar units. On to `CC(=O)OCC[N+](C)(C)C` [ACh, acetylcholine], for which, in the experiment on Asu-ACR-16, the pEC50 is 5.23. In the case of `CC(=O)OCC[N+](C)(C)C` [acetylcholine], the pEC50 in experiment [1] is 5.70. On the same count and under the same terms, the figure for `CN/C(=N/CC1CCOC1)N[N+](=O)[O-]` (centres unmarked) [dinotefuran] is 9.38; for `O=[N+]([O-])NC1=NCCN1Cc1ccc(Cl)nc1` [imidacloprid] it is 7.94. For `CN1CCC[C@H]1c1cccnc1` [nicotine], the pEC50 in the experiment with Asu-ACR-16 was 5.35.
